The results in this text go back to patent US20230286973A1, “PROTEIN SECRETION INHIBITORS” (KEZAR LIFE SCIENCES, priority 2020, published 2023).

For data set [1], the system named is HER3-ss+4aa/Gaussia Luciferase. Briefly: Dox-Induced Her3-ss-Gluc Assay. Type of data set: cell-based. The following applies: 24 hr Dox induction; 293FRT/TO cells; mean; read-out: 24 hr Dox Inducible Her3(ss + 4)Gluc 293FRT/TO: Mean IC50. In a few lines: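 Flp-In 293 T-REx cells, stable HER3-ss+4aa/Gaussia luciferase insert, hygromycin/blasticidin selected; plated day before; compound in DMSO/media + doxycycline; 37° C., 5% CO2.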

Data set [2] is described as follows: Liver Microsome Stability Assay (mouse). To be noted: mouse liver microsomes, with NADPH, 1.0 uM compound. For orientation: Liver microsomes are vesicles of endoplasmic reticulum, rich in cytochrome P450 enzymes.
Description: (§1) Stability of a compound was assessed in the presence of liver microsomes from various sources—mouse, rat, monkey and human liver microsomes. 1.0 uM compound, 0.4% DMSO in 0.1 M Potassium Phosphate with 1.0 mg/mL liver microsomes, were incubated at 37° C. with or without 1 mM NADPH. The samples were quenched at 0, and 30 minutes.
The test system of data set [3] is IL-2-FL/Gaussia Luciferase. Briefly: Dox Induced IL2-FL-Gluc Assay. The following applies: for IC50: 24 hr Dox induction, 293FRT/TO cells, mean, read-out: 24 hr Dox Inducible IL2FLGluc 293FRT/TO: Mean IC50; for 24 hr Dox Inducible IL2FLGluc 293FRT/TO: IL2/PD1: ratio of IL2FLGluc IC50 to PD1ssGluc IC50, '<=>' given where both are I.A. It is filed as cell-based. In a few lines:
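Stable Flp-In 293 T-REx line, Tet-regulated IL-2 (aa 1-153)–Gaussia luciferase fusion; hygromycin/blasticidin selected. Plated day -1; compound + doxycycline added next day; 37° C, 5% CO2.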

Data set [4] deals with PD1-ss+10aa/Gaussia Luciferase. The data set can be described thus: Dox-Induced PD1-ss-Gluc Assay. To be noted: 24 hr Dox induction; 293FRT/TO cells; mean; read-out: 24 hr Dox Inducible PD1ssGluc 293FRT/TO: Mean IC50. Type of data set: cell-based. In outline:
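Flp-In 293 T-REx, stable line; Tet-regulated PD1-ss+10aa fused to Gaussia luciferase; plated day prior; cpd + doxycycline in DMSO/media; 37 °C, 5% CO2.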

A short description of data set [5]: Liver Microsome Stability Assay (human). To be noted: human liver microsomes, with NADPH, 1.0 uM compound.
Description: as §1
Data set [6] has as its system multiple myeloma cell line NCI-H929. The data set can be described thus: H929 Cell Viability Assay. It is filed as cell-based, human. To be noted: Homo sapiens, NCI-H929, 48 h, NCI-H929 cells, Celltiter-Glo. In outline: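 Cells in RPMI 1640/10% FBS; compound dilutions in DMSO/media; 48 h, 37° C, 5% CO2; CellTiter-Glo luciferase readout for viability.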
The subject of data set [7] is TNFα-FL/Gaussia Luciferase. The data set can be described thus: Dox Induced TNFα-FL-Gluc Assay. It is filed as cell-based. To be noted: for IC50: 24 hr Dox induction, 293FRT/TO cells, mean, read-out: 24 hr Dox Inducible TNFaFLGluc 293FRT/TO: Mean IC50; for 24 hr Dox Inducible TNFaFLGluc 293FRT/TO: TNF/PD1: ratio of TNFaFLGluc IC50 to PD1ssGluc IC50, '<=>' given where both are I.A. In a few lines: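 Cell line: stable Flp-In 293 T-REx, TNFα-FL(1-233)-Gaussia luciferase fusion, T-REx-inducible. Plated day -1; compounds in DMSO/media + doxycycline, 37 °C, 5% CO2. Undefined stereocentres = mixture tested.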

A short description of data set [8]: Liver Microsome Stability Assay (monkey). To be noted: monkey liver microsomes, with NADPH, 1.0 uM compound.
Description: as §1
The nature of data set [9]: Liver Microsome Stability Assay (rat). The following applies: rat liver microsomes, with NADPH, 1.0 uM compound.
Description: as §1
Data set [10] has as its system multiple myeloma cell line U266B1. The data set can be described thus: U266 Cell Viability Assay. It is filed as cell-based, human. The following applies: Homo sapiens, U-266, 48 h, U266B1 cells, Celltiter-Glo. In outline:
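Luminescent ATP read-out (CellTiter-Glo) after 48 h compound exposure at 37° C., 5% CO2; cells maintained in RPMI 1640/10% FBS/2 mM glutamine/pen-strep, compounds diluted in DMSO/media.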
(Cellular ATP, detected with luciferase, serves as a proxy for viable cell number.)

Take `O=C(Nc1nc([C@H]2CCCN2c2ccccc2)cs1)c1cccn1-c1cccc2cnccc12` [Compound C111, (R)-1-(isoquinolin-5-yl)-N-(4-(1-phenylpyrrolidin-2-yl)thiazol-2-yl)-1H-pyrrole-2-carboxamide]: the IC50 in [1] came to 0.295 µM; in [3], 0.654 µM; in data set [4], 0.318 µM; in data set [7], 4.94 µM. In addition, the “Liver Microsome Stability (Multiple Species): Mouse - % Remaining after 30 min w/NADPH” value in data set [2] came to 0.64%. The “24 hr Dox Inducible IL2FLGluc 293FRT/TO: IL2/PD1” value in data set [3] is recorded as 2.1. Also, the “Liver Microsome Stability (Multiple Species): Human - % Remaining after 30 min w/NADPH” value in data set [5] is 0.86%. For the same compound, the EC50 in data set [6] and in data set [10] was over 25 µM each time. In addition, the “24 hr Dox Inducible TNFaFLGluc 293FRT/TO: TNF/PD1” value in data set [7] was 15.5. Moreover, the “Liver Microsome Stability (Multiple Species): Monkey - % Remaining after 30 min w/NADPH” value in data set [8] is 0.28%. For the same compound, the “Liver Microsome Stability (Multiple Species): Rat - % Remaining after 30 min w/NADPH” value in [9] is listed as 0.62%.

For `N#CC[C@@H](O)Cn1cccc1C(=O)Nc1nc([C@H]2CCCN2c2ccccc2)cs1` [Compound C112, 1-((R)-3-cyano-2-hydroxypropyl)-N-(4-((R)-1-phenylpyrrolidin-2-yl)thiazol-2-yl)-1H-pyrrole-2-carboxamide], the IC50 in data set [1] was found to be 2.24 µM; in data set [3], 2.29 µM; in [4], 0.545 µM; in data set [7] it was 9.74 µM. The “Liver Microsome Stability (Multiple Species): Mouse - % Remaining after 30 min w/NADPH” value in data set [2] came out at 3.03%. Also, in data set [3], the “24 hr Dox Inducible IL2FLGluc 293FRT/TO: IL2/PD1” value was determined as 4.2. For the same compound, the “Liver Microsome Stability (Multiple Species): Human - % Remaining after 30 min w/NADPH” value in data set [5] is 23.6%. Moreover, the EC50 (in general, the concentration giving half of the maximal effect) is 20.7 µM in data set [6] and over 25 µM in [10]. For the same compound, the “24 hr Dox Inducible TNFaFLGluc 293FRT/TO: TNF/PD1” value in data set [7] came out at 17.9. Also, in data set [8], the “Liver Microsome Stability (Multiple Species): Monkey - % Remaining after 30 min w/NADPH” value amounted to 13.1%. Also, the “Liver Microsome Stability (Multiple Species): Rat - % Remaining after 30 min w/NADPH” value in data set [9] is recorded as 12.6%.

Take `CCC(CC#N)Cn1cccc1C(=O)Nc1nc([C@H]2CCCN2c2ccccc2)cs1` (stereo partly drawn) [Compound C113, 1-(2-(cyanomethyl)butyl)-N-(4-((R)-1-phenylpyrrolidin-2-yl)thiazol-2-yl)-1H-pyrrole-2-carboxamide]: the IC50 in [1] stood at 1.33 µM; in data set [3] it was 1.8 µM; in [4] it was 0.879 µM; in data set [7], 16.3 µM. Further, in data set [2], the “Liver Microsome Stability (Multiple Species): Mouse - % Remaining after 30 min w/NADPH” value came out at 5.06%. For the same compound, the “24 hr Dox Inducible IL2FLGluc 293FRT/TO: IL2/PD1” value in data set [3] is recorded as 2. In addition, the “Liver Microsome Stability (Multiple Species): Human - % Remaining after 30 min w/NADPH” value in data set [5] is recorded as 14.9%. In addition, the values for the EC50 in data set [6] and in data set [10] were 22.8 µM and over 25 µM, respectively. The “24 hr Dox Inducible TNFaFLGluc 293FRT/TO: TNF/PD1” value in data set [7] was 18.6. Further, the “Liver Microsome Stability (Multiple Species): Monkey - % Remaining after 30 min w/NADPH” value in data set [8] came to 3.66%. The “Liver Microsome Stability (Multiple Species): Rat - % Remaining after 30 min w/NADPH” value in data set [9] is listed as 14.8%.

As for `O=C(Nc1nc(/C=C/c2cn(CCO)cn2)cs1)c1cccn1Cc1ccncc1` [Compound C114, (E)-N-(4-(2-(1-(2-hydroxyethyl)-1H-imidazol-4-yl)vinyl)thiazol-2-yl)-1-(pyridin-4-ylmethyl)-1H-pyrrole-2-carboxamide], the IC50 in data set [1] was over 25 µM; in [3], over 25 µM; in data set [4], 6.9 µM; in data set [7] it was over 25 µM. For the same compound, in [2], the “Liver Microsome Stability (Multiple Species): Mouse - % Remaining after 30 min w/NADPH” value was found to be 15.2%. In data set [3], the “24 hr Dox Inducible IL2FLGluc 293FRT/TO: IL2/PD1” value is listed as over 3.6. The “Liver Microsome Stability (Multiple Species): Human - % Remaining after 30 min w/NADPH” value in data set [5] is 0.67%. Moreover, the EC50 in data set [6] and in data set [10] was over 25 µM in each case. Further, the “24 hr Dox Inducible TNFaFLGluc 293FRT/TO: TNF/PD1” value in data set [7] was over 3.62. In addition, the “Liver Microsome Stability (Multiple Species): Monkey - % Remaining after 30 min w/NADPH” value in [8] was 0.22%. Also, in data set [9], the “Liver Microsome Stability (Multiple Species): Rat - % Remaining after 30 min w/NADPH” value is listed as 19.2%.
